Reference: ChEMBL document CHEMBL5113492, “Design, synthesis, and biological evalution of bifunctional inhibitors against Hsp90-HDAC6 interplay” (Eur J Med Chem, 2022)
The source made the active and inactive calls. No cut-off for these calls is given here.

What was measured:
[1] = biological target: T1, Protein deacetylase HDAC6 (Homo sapiens) (UniProt Q9UBN7); experiment: Inhibition of HDAC6 in human NCI-H1975 cells assessed as increase in acetylation of alpha tubulin at 1 uM incubated for 24 hrs by western blot analysis; format: cell-based
T1 sequence (whole entry): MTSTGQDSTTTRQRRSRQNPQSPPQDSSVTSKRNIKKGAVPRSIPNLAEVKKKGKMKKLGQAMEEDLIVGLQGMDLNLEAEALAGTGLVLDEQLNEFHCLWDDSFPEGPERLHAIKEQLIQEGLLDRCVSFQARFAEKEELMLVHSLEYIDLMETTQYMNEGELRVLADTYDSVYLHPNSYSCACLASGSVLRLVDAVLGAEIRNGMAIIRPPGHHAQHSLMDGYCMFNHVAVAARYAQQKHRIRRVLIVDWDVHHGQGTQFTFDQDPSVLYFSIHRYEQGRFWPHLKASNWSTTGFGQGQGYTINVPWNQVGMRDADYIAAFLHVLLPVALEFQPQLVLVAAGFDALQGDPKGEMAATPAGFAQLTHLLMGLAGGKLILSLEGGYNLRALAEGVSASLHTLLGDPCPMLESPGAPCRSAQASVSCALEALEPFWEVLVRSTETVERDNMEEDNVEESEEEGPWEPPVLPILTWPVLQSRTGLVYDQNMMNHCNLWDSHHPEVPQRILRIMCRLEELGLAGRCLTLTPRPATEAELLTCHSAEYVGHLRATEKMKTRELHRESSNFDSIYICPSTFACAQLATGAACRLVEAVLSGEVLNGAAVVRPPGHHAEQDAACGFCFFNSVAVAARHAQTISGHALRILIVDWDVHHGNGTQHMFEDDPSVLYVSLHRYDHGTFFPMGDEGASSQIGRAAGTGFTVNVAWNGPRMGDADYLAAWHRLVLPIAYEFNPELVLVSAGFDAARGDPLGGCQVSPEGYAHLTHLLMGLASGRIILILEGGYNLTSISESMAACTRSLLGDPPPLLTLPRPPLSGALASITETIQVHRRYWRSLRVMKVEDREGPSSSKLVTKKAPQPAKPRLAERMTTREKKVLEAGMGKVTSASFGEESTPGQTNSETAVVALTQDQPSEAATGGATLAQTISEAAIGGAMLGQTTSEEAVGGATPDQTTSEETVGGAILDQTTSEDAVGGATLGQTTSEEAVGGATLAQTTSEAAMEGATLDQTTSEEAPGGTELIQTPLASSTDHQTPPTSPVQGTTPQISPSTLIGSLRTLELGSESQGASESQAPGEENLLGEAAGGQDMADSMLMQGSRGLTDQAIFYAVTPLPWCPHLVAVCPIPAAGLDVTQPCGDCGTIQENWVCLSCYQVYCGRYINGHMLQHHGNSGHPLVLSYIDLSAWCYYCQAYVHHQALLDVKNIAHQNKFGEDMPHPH

[2] = Toxicity in NSG mouse xenografted with human NCI-H1975 cells assessed as abnormal behavior at 50 mg/kg,ip measured after 6 weeks; format: organism-based; conditions: in vivo, 1008 h
[3] = biological target: T2, Heat shock protein HSP90 (Homo sapiens) (UniProt P07900+P08238); experiment: Inhibition of HSP90 in human NCI-H1975 cells assessed as upregulation of HSP70 expression at 2 uM incubated for 24 hrs by western blot analysis; format: cell-based
[4] = Toxicity in NSG mouse xenografted with human NCI-H1975 cells assessed as change in number of retina at 50 mg/kg,ip measured after 6 weeks by H and E staining based assay; format: organism-based; conditions: in vivo, 1008 h
[5] = biological target: T1, Protein deacetylase HDAC6 (Homo sapiens); experiment: Inhibition of HDAC6 in human NCI-H1975 cells assessed as increase in acetylation of HSP90 at 2 uM incubated for 24 hrs by western blot analysis; format: cell-based
NCI-H1975 [6] = experiment: Antitumor activity against NSG mouse xenografted with human NCI-H1975 cells assessed as reduction on tumor growth at 50 mg/kg,ip measured after 2 weeks; format: functional, organism-based
[7] = Toxicity in NSG mouse xenografted with human NCI-H1975 cells assessed as abnormal behavior at 25 mg/kg,ip measured after 6 weeks; format: organism-based; conditions: in vivo, 1008 h
[8] = biological target: T2, Heat shock protein HSP90 (Homo sapiens); experiment: Inhibition of HSP90 in human NCI-H1975 cells assessed as downregulation of Her2 expression at 0.05 to 2 uM incubated for 24 hrs by western blot analysis; format: cell-based; conditions: dose 0.05-2 µM, DDE = dose-dependent effect
NCI-H1975 [9] = experiment: Antitumor activity against NSG mouse xenografted with human NCI-H1975 cells assessed as reduction on tumor growth at 50 mg/kg,ip measured after 6 weeks; format: functional, organism-based
NCI-H1975 [10] = experiment: Induction of apoptosis in human NCI-H1975 cells assessed as caspase-3 cleavage at 0.05 to 2 uM incubated for 24 hrs by western blot analysis; format: functional, cell-based; conditions: dose 0.05-2 µM, DDE = dose-dependent effect
[11] = biological target: T1, Protein deacetylase HDAC6 (Homo sapiens); experiment: Inhibition of HDAC6 in human NCI-H1975 cells assessed as increase in acetylation of alpha tubulin at 1 uM incubated for 24 hrs by DAPI staining based immunofluorescence microscopy; format: cell-based
NCI-H1975 [12] = experiment: Induction of apoptosis in human NCI-H1975 cells assessed as early apoptotic cells at 2 uM incubated for 24 hrs by Annexin-V/propidium iodide staining based flow cytometry analysis; format: functional
[13] = Toxicity in NSG mouse xenografted with human NCI-H1975 cells assessed as histological abnormalities in ocular region at 50 mg/kg,ip measured after 6 weeks by H and E staining based assay; format: organism-based; conditions: in vivo, 1008 h

inhibition [1]: Active | inhibition [3]: Active | inhibition [5]: Active | inhibition [8]: Dde | inhibition [11]: Active
SMILES: CC(C)c1cc(C(=O)N(C)Cc2ccc(C(=O)NO)cc2)c(O)cc1O
Activity [2]: Non-Toxic | Activity [4]: Non-Toxic | Activity (NCI-H1975 [6]): Active | Activity [7]: Non-Toxic | Activity (NCI-H1975 [9]): Active | Activity (NCI-H1975 [10]): Dde | Activity (NCI-H1975 [12]): 16.78% | Activity [13]: Non-Toxic
